From PubChem BioAssay (NCI)
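Five compound concentrations were applied to cells in 96-well plates for 48 hours; endpoints were derived by simple linear interpolation of the resulting dose-response curve. GI50: concentration for 50% inhibition of growth. Definition used: TGI = concentration required for complete inhibition of growth.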

Assays:
Test in all cases: NCI anticancer screen, dose series, 48 h; in the data active means GI50 below about 0.43 µM; inactive means the rest
[1] = test system: 786-0 renal
[2] = test system: A498 renal
[3] = test system: A549 NSCLC
[4] = test system: ACHN renal
[5] = test system: BT-549 breast
[6] = test system: CAKI-1 renal
[7] = test system: CCRF-CEM leukemia
[8] = test system: COLO 205 colon
[9] = test system: DU-145 prostate
[10] = test system: HCC-2998 colon
[11] = test system: HCT-116 colon
[12] = test system: HCT-15 colon
[13] = test system: HL-60(TB) leukemia
[14] = test system: HOP-62 NSCLC
[15] = test system: HOP-92 NSCLC
[16] = test system: HS 578T breast
[17] = test system: HT29 colon
[18] = test system: IGROV1 ovarian
[19] = test system: K-562 leukemia
[20] = test system: KM12 colon
[21] = test system: LOX IMVI melanoma
[22] = test system: M14 melanoma
[23] = test system: MALME-3M melanoma
[24] = test system: MCF7 breast
[25] = test system: MDA-MB-231 breast
[26] = test system: MDA-MB-435
[27] = test system: MOLT-4 leukemia
[28] = test system: NCI-H226 lung
[29] = test system: NCI-H23 lung
[30] = test system: NCI-H460 lung
[31] = test system: NCI-H522 lung
[32] = test system: NCI/ADR-RES ovarian
[33] = test system: OVCAR-3 ovarian
[34] = test system: OVCAR-4 ovarian
[35] = test system: OVCAR-5 ovarian
[36] = test system: OVCAR-8 ovarian
[37] = test system: PC-3 prostate
[38] = test system: RPMI-8226 leukemia
[39] = test system: RXF 393 renal
[40] = test system: SF-268 CNS
[41] = test system: SF-295 CNS
[42] = test system: SF-539 CNS
[43] = test system: SK-MEL-2 melanoma
[44] = test system: SK-MEL-28 melanoma
[45] = test system: SK-MEL-5 melanoma
[46] = test system: SK-OV-3 ovarian
[47] = test system: SN12C renal
[48] = test system: SNB-19 CNS
[49] = test system: SNB-75 CNS
[50] = test system: SR leukemia
[51] = test system: SW-620 colon
[52] = test system: T-47D breast
[53] = test system: TK-10 renal
[54] = test system: U251 CNS
[55] = test system: UACC-257 melanoma
[56] = test system: UACC-62 melanoma
[57] = test system: UO-31 renal

CC(=O)c1nc2ccccc2n1CCN1CCN(C)CC1
1690 nM: TGI [26]
18.6 µM: TGI [39]
> 52700 nM: TGI [2]
> 100 µM: TGI [1] | TGI [3] | TGI [4] | TGI [5] | TGI [6] | TGI [7] | TGI [11] | TGI [12] | TGI [14] | TGI [19] | TGI [20] | TGI [21] | TGI [23] | TGI [24] | TGI [27] | TGI [29] | TGI [30] | TGI [32] | TGI [34] | TGI [36] | TGI [37] | TGI [38] | TGI [40] | TGI [44] | TGI [45] | TGI [47] | TGI [48] | TGI [50] | TGI [51] | TGI [54] | TGI [57]
6.39 µM: TGI [8]
> 26 µM: TGI [33]
59.5 µM: TGI [46]
active: GI50 [15] 416 nM | GI50 [26] 373 nM | GI50 [49] 66.8 nM
> 26.2 µM: TGI [13]
> 100000 nM: TGI [18] | TGI [28] | TGI [35] | TGI [52] | TGI [55] | TGI [56]
47.6 µM: TGI [43]
84.3 µM: TGI [53]
12.3 µM: TGI [9]
1570 nM: TGI [49]
10.4 µM: TGI [17]
25.9 µM: TGI [16]
15.4 µM: TGI [41]
> 50.4 µM: TGI [42]
6.11 µM: TGI [31]
inactive: GI50 [1] 17.6 µM | GI50 [2] 3460 nM | GI50 [3] 2.63 µM | GI50 [4] 23.4 µM | GI50 [5] 6.21 µM | GI50 [6] 34.1 µM | GI50 [7] 3.29 µM | GI50 [8] 1890 nM | GI50 [9] 2790 nM | GI50 [10] 3.63 µM | GI50 [11] 1200 nM | GI50 [12] 25 µM | GI50 [13] 2620 nM | GI50 [14] 3.57 µM | GI50 [16] 2150 nM | GI50 [17] 639 nM | GI50 [18] 4830 nM | GI50 [19] 3.95 µM | GI50 [20] 3.06 µM | GI50 [21] 2600 nM | GI50 [22] 2660 nM | GI50 [23] 2380 nM | GI50 [24] 1160 nM | GI50 [25] 2980 nM | GI50 [27] 8.2 µM | GI50 [28] 31.5 µM | GI50 [29] 6.01 µM | GI50 [30] 2300 nM | GI50 [31] 1800 nM | GI50 [32] 61.1 µM | GI50 [33] 2600 nM | GI50 [34] 15.7 µM | GI50 [35] 3500 nM | GI50 [36] 3.76 µM | GI50 [37] 2410 nM | GI50 [38] 1.9 µM | GI50 [39] 1590 nM | GI50 [40] 4.63 µM | GI50 [41] 2120 nM | GI50 [42] 2280 nM | GI50 [43] 3.28 µM | GI50 [44] 7.15 µM | GI50 [45] 3.13 µM | GI50 [46] 3.61 µM | GI50 [47] 4.21 µM | GI50 [48] 17.3 µM | GI50 [50] 1320 nM | GI50 [51] 2.8 µM | GI50 [52] 2970 nM | GI50 [53] 11.5 µM | GI50 [54] 3.82 µM | GI50 [55] 5470 nM | GI50 [56] 4110 nM | GI50 [57] 9.35 µM
> 41.6 µM: TGI [22]
> 95.8 µM: TGI [25]
26.9 µM: TGI [10]

CCN(Cc1ccncc1)c1ccc(CO)c(Cl)c1
6.27 µM: TGI [34]
2840 nM: TGI [52]
320 nM: TGI [28]
2480 nM: TGI [18]
> 74.1 µM: TGI [15]
> 100 µM: TGI [1] | TGI [3] | TGI [4] | TGI [5] | TGI [6] | TGI [7] | TGI [9] | TGI [10] | TGI [11] | TGI [12] | TGI [13] | TGI [14] | TGI [16] | TGI [17] | TGI [19] | TGI [20] | TGI [21] | TGI [22] | TGI [23] | TGI [24] | TGI [25] | TGI [27] | TGI [29] | TGI [30] | TGI [31] | TGI [32] | TGI [36] | TGI [37] | TGI [38] | TGI [39] | TGI [40] | TGI [42] | TGI [43] | TGI [44] | TGI [45] | TGI [46] | TGI [47] | TGI [48] | TGI [50] | TGI [51] | TGI [54] | TGI [57]
203 nM: TGI [2]
6.34 µM: TGI [8]
4.67 µM: TGI [33]
inactive: GI50 [1] > 57 µM | GI50 [3] 8.48 µM | GI50 [4] > 100 µM | GI50 [5] > 100 µM | GI50 [6] 61.6 µM | GI50 [7] > 100 µM | GI50 [8] 1770 nM | GI50 [9] > 100000 nM | GI50 [10] 22 µM | GI50 [12] > 100 µM | GI50 [13] > 32000 nM | GI50 [14] 5.03 µM | GI50 [15] 2690 nM | GI50 [16] > 100000 nM | GI50 [17] 4070 nM | GI50 [19] 5.62 µM | GI50 [20] > 100 µM | GI50 [21] > 100000 nM | GI50 [22] > 100000 nM | GI50 [23] > 100000 nM | GI50 [24] 589 nM | GI50 [25] > 100000 nM | GI50 [26] > 100000 nM | GI50 [27] > 100 µM | GI50 [29] > 100 µM | GI50 [30] 638 nM | GI50 [31] > 100000 nM | GI50 [32] 81.1 µM | GI50 [33] 1140 nM | GI50 [34] 0.548 µM | GI50 [36] 96.9 µM | GI50 [37] > 100000 nM | GI50 [38] 15.6 µM | GI50 [40] > 100 µM | GI50 [41] 951 nM | GI50 [42] > 100000 nM | GI50 [43] > 24.7 µM | GI50 [44] > 100 µM | GI50 [45] 23.8 µM | GI50 [46] > 76.1 µM | GI50 [47] > 100 µM | GI50 [48] > 100 µM | GI50 [49] > 77800 nM | GI50 [50] > 100000 nM | GI50 [51] 3.74 µM | GI50 [54] 4.22 µM | GI50 [57] 24.9 µM
> 100000 nM: TGI [26] | TGI [49]
0.34 µM: TGI [53]
> 56.3 µM: TGI [41]
584 nM: TGI [35]
738 nM: TGI [55]
active: GI50 [2] 52.5 nM | GI50 [11] 352 nM | GI50 [18] 372 nM | GI50 [28] 0.127 µM | GI50 [35] 152 nM | GI50 [52] 367 nM | GI50 [53] 0.0945 µM | GI50 [55] 237 nM | GI50 [56] 333 nM
2170 nM: TGI [56]
